PubChem BioAssay (NCI)
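Briefly, cells in 96-well plates were exposed to five compound concentrations for 48 h, and endpoints were estimated by linear interpolation. GI50: concentration for 50% inhibition of growth. TGI marks complete inhibition of growth.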

Tests used:
Assay in all cases: inhibition of tumour cell growth, NCI panel, 48 h
[1] = system: UO-31 renal
[2] = system: SK-OV-3 ovarian
[3] = system: UACC-62 melanoma
[4] = system: HCT-116 colon
[5] = system: NCI-H226 lung
[6] = system: HT29 colon
[7] = system: OVCAR-5 ovarian
[8] = system: NCI-H460 lung
[9] = system: OVCAR-8 ovarian
[10] = system: 786-0 renal

SMILES | TGI [1] [µM] | TGI [2] [µM] | TGI [3] [µM] | TGI [4] [µM] | TGI [5] [µM] | TGI [6] [µM] | TGI [7] [µM] | TGI [8] [µM] | TGI [9] [µM] | TGI [10] [µM] | GI50 [1] [µM] | GI50 [2] [µM] | GI50 [3] [µM] | GI50 [4] [µM] | GI50 [5] [µM] | GI50 [6] [µM] | GI50 [7] [µM] | GI50 [8] [µM] | GI50 [9] [µM] | GI50 [10] [µM]
COc1c(OC)c(OC)c(C(=O)/C=C/c2ccccc2)c(OC)c1OC | 22.2 | 32.9 | 24.2 | 18.5 | 38.4 | 15.1 | 36.9 | 21.9 | 34 | 21.6 | – | – | – | – | – | – | – | – | – | –
C=CCCCCCCCCCCC1(O)C=CC2=[N+](CCCCCN=C(N)N)CCCN21 (stereo not drawn) | 36.5 | 38.5 | 28.9 | > 45.2 | 21 | 22.7 | 20.8 | 19.9 | 26.1 | 29.8 | 17 | 19.1 | 13.3 | 12.4 | 3.86 | 3.87 | 6.25 | 4.38 | 7.24 | 7.47
Oc1cc(O)c2c(c1)OC(c1ccc(O)c(O)c1)C(OC1(c3cc(O)c(O)c(O)c3)Oc3cc(O)cc(O)c3C(O)C1O)C2 (stereo not drawn) | 50.2 | > 100 | > 100 | 62 | 50.9 | 41 | 59.3 | 36.8 | > 67.7 | 67.8 | – | – | – | – | – | – | – | – | – | –
Cc1csc(Nc2nc(-c3cccc(Br)c3)nc(C(Cl)(Cl)Cl)n2)n1 | > 100 | > 100 | > 100 | > 100 | > 100 | > 100 | > 100 | 3.53 | > 100 | > 100 | 2.51 | > 100 | 3.35 | 3.05 | > 100 | 0.56 | 5.2 | 1.16 | > 29.2 | 7.75
CC(CC(=O)O)C(C(=O)O)C(=O)O (stereo not drawn) | > 100 | > 100 | > 100 | > 100 | > 100 | > 100 | > 100 | > 100 | > 100 | > 100 | – | – | – | – | – | – | – | – | – | –
O=C(CC(O)(C(F)(F)F)C(F)(F)F)c1cc(CC(=O)C(O)(C(F)(F)F)C(F)(F)F)cc(CC(=O)C(O)(C(F)(F)F)C(F)(F)F)c1 | 3.84 | 9.55 | 4.11 | 2.56 | > 6.85 | 4.28 | > 9.25 | 2.25 | 6.91 | 4.53 | – | – | – | – | – | – | – | – | – | –
CC(=O)n1c2c(c(=O)n1-c1ccccc1)S(=O)CCC2 (stereo not drawn) | > 100 | > 100 | > 100 | > 100 | > 100 | > 100 | > 100 | > 100 | > 100 | > 78.6 | – | – | – | – | – | – | – | – | – | –
COc1cc(C2c3cc4c(cc3C(O)C(CO)C2CO)OCO4)cc(OC)c1OC (stereo not drawn) | > 100 | > 100 | > 100 | > 100 | > 100 | – | > 100 | > 26.4 | > 100 | > 100 | – | 1.57 | 0.534 | 0.492 | 7.47 | 0.422 | 5.69 | 0.463 | 2.76 | 6.59
CS(=O)(=O)CCCn1c(=O)c(Oc2ccc(F)cc2F)cc2cnc(NC3CCOCC3)nc21 | > 25 | > 25 | > 25 | > 25 | > 25 | > 25 | > 25 | > 25 | > 25 | > 25 | > 25 | > 25 | > 25 | > 25 | > 25 | > 25 | > 25 | > 25 | > 25 | > 25
Nc1nccc2c1ccn2-c1ccc(NC(=O)c2ccc(N3CCOCC3)c(C(F)(F)F)c2)cc1 | 4.15 | 23.5 | 1.19 | 11.1 | 20 | 1.26 | 20.6 | 1.65 | 19.6 | 0.529 | 0.573 | 2.44 | 0.337 | 0.873 | 5.62 | 0.322 | 1.64 | 0.352 | 3.47 | 0.207
CC1(C)OCCn2c1nc1c(N3CCOCC3)nc(-c3cnc(N)nc3)nc12 | 1.11 | 0.495 | 1.42 | > 100 | 8.75 | > 100 | > 100 | > 100 | 11.2 | 5.09 | 0.0912 | 0.102 | 0.185 | 0.337 | 0.227 | 0.23 | 0.249 | 0.187 | 0.404 | 0.344
COc1ccc(-c2cc(-c3ccccc3)c(C#N)c(=O)n2C2OC(CO)C(O)C(O)C2O)cc1 (stereo not drawn) | > 100 | > 100 | > 100 | > 100 | > 100 | > 100 | > 100 | > 100 | > 100 | > 100 | – | – | – | – | – | – | – | – | – | –
Cc1cn2c(/C=C3\C(=O)Nc4ccc(O)cc43)c(-c3ccc(Cl)cc3)nc2s1 | 59.9 | 62.7 | 56.2 | 42.5 | 51 | 56.2 | 51.4 | 45.3 | > 100 | 32.7 | 5.37 | 25.9 | 9.4 | 15.6 | 18.5 | 18.1 | 21.2 | 15.5 | 18.4 | 16.6
COc1cccc(/C=N/[N-]C(=O)c2ccncc2)c1[O-].[Cu+2].[OH3+] | > 100 | 82 | > 100 | 93.9 | > 100 | > 100 | > 100 | > 100 | > 100 | > 100 | 45.5 | 15.1 | 28.9 | 23.8 | > 100 | 43.8 | > 100 | 28.7 | 22 | 63.4
